Where two headings read alike, the source gives them in different places.
Test: Measurement of logP values by HPLC on reversed phase columns (EEC directive 79/831 Annex V.A8)
Type: physicochemical
Settings: pH 2.7, 0.1% formic acid in water / acetonitrile gradient 10% to 95%; for chromatographic logP: reversed phase HPLC column

SMILES	logp	Log p	further results
CCCCCC(=O)Nc1cccc(CON=C(c2cc(C)ccc2F)c2nnnn2C)n1 [Example 100]	3.92	–	–
CC#CCOC(=O)Nc1cccc(CON=C(c2ccc(F)c(C)c2)c2nnnn2C)n1 [Example 101]	3.67	–	–
CCCCCC(=O)Nc1cccc(CON=C(c2cccc(C)c2F)c2nnnn2C)n1 [Example 103]	3.96	–	–
CCCCCC(=O)Nc1cccc(CON=C(c2ccc(F)c(C(F)(F)F)c2)c2nnnn2C)n1 [Example 104]	4.36	–	–
CCCCCC(=O)Nc1cccc(CON=C(c2cc(C(F)(F)F)ccc2Cl)c2nnnn2C)n1 [Example 106]	4.39	–	–
CCCCCC(=O)Nc1cccc(CON=C(c2ccc(C(F)(F)F)c(Cl)c2)c2nnnn2C)n1 [Example 107]	4.7	–	–
CCCCCC(=O)Nc1cccc(CON=C(c2cc(C(F)(F)F)ccc2C)c2nnnn2C)n1 [Example 111]	4.34	–	–
CCCCCC(=O)Nc1cccc(CON=C(c2cccc(F)c2C)c2nnnn2C)n1 [Example 112]	3.96	–	–
CCCCCC(=O)Nc1cccc(CON=C(c2ccc(C)cc2F)c2nnnn2C)n1 [Example 115]	3.92	–	–
CCCCCC(=O)Nc1cccc(CON=C(c2ccc(C)c(C(F)(F)F)c2)c2nnnn2C)n1 [Example 118]	4.56	–	–
CCCCCC(=O)Nc1cccc(CON=C(c2ccc(F)c(C)c2)c2nnnn2C)n1 [Example 119]	4.11	–	–
CCCCCOC(=O)Nc1cccc(CON=C(c2cc(C)ccc2F)c2nnnn2C)n1 [Example 121]	4.19	–	–
CCCCCOC(=O)Nc1ccnc(CON=C(c2ccc(C)c(C(F)(F)F)c2)c2nnnn2C)n1 [Example 122]	4.59	–	–
CCCCCC(=O)Nc1cccc(CON=C(c2cc(C)cc(F)c2)c2nnnn2C)n1 [Example 123]	4.14	–	–
Cc1ccc(C(F)(F)F)cc1C(=NOCc1cccc(N)n1)c1nnnn1C [Example 124]	1.73	–	–
Cc1cc(C)cc(C(=NOCc2cccc(N)n2)c2nnnn2C)c1 [Example 125]	1.81	–	–
Cn1nnnc1C(=NOCc1cccc(N)n1)c1cc(F)cc(C(F)(F)F)c1 [Example 127]	1.75	–	–
Cc1ccc(C(=NOCc2nccc(N)n2)c2nnnn2C)cc1C(F)(F)F [Example 128, 2-{[({(1-methyl-1H-tetrazol-5-yl)[4-methyl-3-(trifluoromethyl)phenyl]methylidene}amino)oxy]methyl}pyrimidin-4-amine]	–	–	chromatographic logP: 1.7
Cc1nc(N)cc(CON=C(c2ccc(F)c(Oc3ccccc3)c2)c2nnnn2C)n1 [Example 129]	1.75	–	–
Cc1ccc(C(F)(F)F)cc1C(=NOCc1csc(N)n1)c1nnnn1C [Example 130]	1.92	–	–
Cn1nnnc1C(=NOCc1csc(N)n1)c1cc(F)cc(C(F)(F)F)c1 [Example 131]	2.14	–	–
Cc1ccc(F)c(C(=NOCc2csc(N)n2)c2nnnn2C)c1 [Example 132]	1.65	–	–
Cn1nnnc1C(=NOCc1cccc(N)n1)c1cc(C(F)(F)F)ccc1Cl [Example 133]	–	1.72	–
Cn1nnnc1C(=NOCc1cccc(N)n1)c1ccc(C(F)(F)F)c(Cl)c1 [Example 134]	–	1.9	–

SMILES	logp	Log p	further results
Cc1cc(F)cc(C(=NOCc2cccc(N)n2)c2nnnn2C)c1 [Example 135]	–	1.46	–
Cc1ccc(F)c(C(=NOCc2cccc(N)n2)c2nnnn2C)c1 [Example 136]	–	1.4	–
Cc1ccc(C(=NOCc2cccc(N)n2)c2nnnn2C)cc1F [Example 137]	–	1.52	–
Cc1cccc(C(=NOCc2cccc(N)n2)c2nnnn2C)c1F [Example 138]	–	1.42	–
Cc1nc(N)cc(CON=C(c2ccc(F)c(Oc3ccccc3)c2)c2nnn(C)n2)n1 [Example 139]	–	1.73	–
Cn1nnc(C(=NOCc2csc(N)n2)c2ccc(F)c(Oc3ccccc3)c2)n1 [Example 140]	–	2.23	–
Cn1nnnc1C(=NOCc1cccc(N)n1)c1cccc(C(F)(F)F)c1F [Example 143, 6-{[({[2-fluoro-3-(trifluoromethyl)phenyl](1-methyl-1H-tetrazol-5-yl)methylidene}amino)oxy]methyl}pyridin-2-amine]	–	–	chromatographic logP (read-out: Log p): 1.75
Cc1ccc(C(=NOCc2csc(N)n2)c2nnnn2C)cc1C(F)(F)F [Example 145, 4-{[({(1-methyl-1H-tetrazol-5-yl)[4-methyl-3-(trifluoromethyl)phenyl]methylidene}amino)oxy]methyl}-1,3-thiazol-2-amine]	–	–	chromatographic logP (read-out: Log p): 2.22
CCCC(=O)Nc1nc(CON=C(c2ccc(F)c(Oc3ccccc3)c2)c2nnnn2C)cs1 [Example 146]	–	3.35	–
Cn1nnnc1C(=NOCc1csc(NC(=O)C(C)(C)C)n1)c1ccc(F)c(Oc2ccccc2)c1 [Example 147]	–	4.05	–
Cn1nnnc1C(=NOCc1csc(NC(=O)C2CC2)n1)c1ccc(F)c(Oc2ccccc2)c1 [Example 148]	–	3.48	–
Cn1nnnc1C(=NOCc1csc(N)n1)c1ccc(F)c(Oc2ccccc2)c1 [Example 149]	–	2.25	–
Cc1cc(C(=NOCc2csc(NC(=O)OC(C)(C)C)n2)c2nnnn2C)ccc1F [Example 150, tert-butyl {4-[({[(4-fluoro-3-methylphenyl)(1-methyl-1H-tetrazol-5-yl)methylidene]amino}oxy)methyl]-1,3-thiazol-2-yl}carbamate]	–	–	chromatographic logP (read-out: Log p): 3.89
Cc1cc(C(=NOCc2csc(NCCC3CCCCC3)n2)c2nnnn2C)ccc1F [Example 151]	–	4.36	–
CCCCC#Cc1nc(CON=C(c2ccc(F)c(C)c2)c2nnnn2C)cs1 [Example 152]	–	4.78	–
CCCC#Cc1nc(CON=C(c2ccc(F)c(C)c2)c2nnnn2C)cs1 [Example 153, 1-(4-fluoro-3-methylphenyl)-1-(1-methyl-1H-tetrazol-5-yl)-N-{[2-(pent-1-yn-1-yl)-1,3-thiazol-4-yl]methoxy}methanimine]	–	–	chromatographic logP (read-out: Log p): 4.36
Cc1cc(C(=NOCc2csc(NCC3CC3)n2)c2nnnn2C)ccc1F [Example 154, N-(cyclopropylmethyl)-4-[({[(4-fluoro-3-methylphenyl)(1-methyl-1H-tetrazol-5-yl)methylidene]amino}oxy)methyl]-1,3-thiazol-2-amine]	–	–	chromatographic logP (read-out: Log p): 2.71
Cc1cc(C(=NOCc2csc(C#CCCCc3ccccc3)n2)c2nnnn2C)ccc1F [Example 155]	–	5.32	–
CCC#Cc1nc(CON=C(c2ccc(F)c(C)c2)c2nnnn2C)cs1 [Example 156]	–	4.09	–
Cc1cc(C(=NOCc2cccc(N)n2)c2nnnn2C)ccc1F [Example 159]	–	1.50	–
Cc1cc(C(=NOCc2csc(Br)n2)c2nnnn2C)ccc1F [Example 161, N-[(2-bromo-1,3-thiazol-4-yl)methoxy]-1-(4-fluoro-3-methylphenyl)-1-(1-methyl-1H-tetrazol-5-yl)methanimine]	–	–	chromatographic logP (read-out: Log p): 3.57
Cc1ccc(C(=NOCc2cccc(N)n2)c2nnnn2C)cc1C(F)(F)F [Example 162]	–	2.10	–
Cc1cc(C(=NOCc2csc(N)n2)c2nnnn2C)ccc1F [Example 163]	–	1.75	–

From patent publication US20100286173A1 (priority 2008, published 2010)
